Read-outs that look alike come from different tables or passages of the source.
Assays:
Format in all cases: cell-based
[1] = tested on: P. falciparum parasites (3D7 strain); experiment: Plasmodium falciparum cytotoxicity assay (3D7 strain, SYBR-Green); settings: 72-96 hours, Mean ± SD
Experimental: Plasmodium falciparum Cytotoxicity Assay
P. falciparum parasites (3D7 strain-chloroquine sensitive) are grown in in vitro culture in human erythrocytes. Each well is inoculated with a low density of parasites in standard parasite growth media with supplemented hypoxanthine (10 or 367 μM). Increasing concentrations of drugs are added and parasites are allowed to grow for 72-96 hours in 5% CO2/5% O2/90% N2 gas at 37° C. At the end of the experiment, parasites are lysed, SYBR-Green dye in lysis solution is added and the fluorescence intensity is measured for each well.

PfENT1-HA-CO = target: T1, PfENT1-HA-CO (Plasmodium falciparum, UniProt Q8IDM6); experiment: Concentration-dependent rescue of PfENT1-HA-CO-expressing fui1Δ yeast from 5-FUrd induced death
T1 construct: HA; expressed in transfected cells; host or cells: fui1Δ yeast (Saccharomyces cerevisiae)
Experimental: In the primary screen the compounds were tested at a concentration of 10 μM. Hits were identified by the growth of fui1Δ yeast expressing PfENT1 and Green Fluorescent Protein (GFP) in the presence of the cytotoxic nucleoside 5-fluorouridine (5-FUrd). 5-FUrd is transported by PfENT1. PfENT1 expressing fui1Δ yeast will only grow in the presence of 125 μM 5-FUrd if a PfENT1 inhibitor blocks the uptake of 5-FUrd into the yeast. Significant yeast growth in the HTS in 384 well plates was determined by two criteria: 1) turbidity as determined by the optical density at 620 nm (OD620) and 2) GFP fluorescence intensity. Positive responses were signal intensities greater than four standard deviations above the mean of the negative growth control wells. Hits had to be positive by both criteria. From the library screen, 171 chemical entities were identified as positive by both criteria (Table 2).
Of the 171 hits from the primary HTS, nine were chosen for more extensive validation using a series of secondary assays. These nine compounds included the top seven hits (HTS rank #1-7 as indicated in Tables 1 and 2), the first hit identified (compound HTS rank #19) and compound HTS rank #13, which was a unique chemical scaffold relative to the other 8 compounds. The secondary assays used to validate the nine selected hits include 1) repeat of the primary HTS using a series of compound concentrations to determine the concentration-response relationship for each compound, 2) testing in an alternative yeast-based assay in purine auxotrophic ade2Δ yeast expressing PfENT1 (described below, FIG. 1 and FIG. 4B), and 3) a Plasmodium falciparum cytotoxicity assay (described below, FIGS. 5A-B.). These assays allowed further confirmation the hits, determining the concentration-response relationships in the yeast-based assays and the concentration dependence of their ability to kill Plasmodium falciparum parasites during growth in in vitro culture. There was a roughly linear correlation between the compounds' IC50s measured in the two yeast-based assays. All nine compounds were tested in the P. falciparum cytotoxicity assay (FIGS. 5A-B).
(§1) The means values from single experiments are shown. In the key, CQ=chloroquine, and the Table 1 compounds are referenced as symbols indicating HTS rank #1-7, 13, and 19. In this assay, inhibitors of PfENT1 […] yeast growth (FIGS. 4B-C).

PfENT1-CO = target: T2, PfENT1-CO (Plasmodium falciparum, UniProt Q8IDM6); experiment: [3H]adenosine uptake into PfENT1-CO expressing ade2Δ yeast; settings: uptake over 15 minutes; Mean ± SD, N ≧ 3
T2 construct: expressed in transfected cells; host or cells: purine auxotrophic ade2Δ yeast (Saccharomyces cerevisiae)
Source text: FIGS. 4A-C are graphs showing the validation of selected compounds identified as Plasmodium falciparum Equilibrative Nucleoside Transporter Type I (PfENT1) inhibitors in the high-throughput screen (HTS). […] The means values from single experiments are shown. In the key, CQ=chloroquine, and the Table 1 compounds are referenced as symbols indicating HTS rank #1-7, 13, and 19.
as §1

Dd2 parasite = experiment: Plasmodium falciparum parasite viability assay (Dd2); settings: Dd2, high purine media, Mean ± SD
[2] = tested on: P. falciparum 3D7 parasites; experiment: [3H]adenosine uptake into trophozoite-stage P. falciparum 3D7 parasites; settings: Plasmodium falciparum, uptake over 15 minutes, Mean ± SD, N ≧ 3
Source text: FIGS. 5A-E are graphs and images reflecting the inhibitory effects of selected PfENT1 inhibiting compounds with P. falciparum. FIGS. 5A-C are graphs illustrating the inhibitory effects of selected PfENT1 inhibiting compounds with P. falciparum.

PfENT1 = target: T3, PfENT1 (Plasmodium falciparum, UniProt Q8IDM6); settings: primary HTS, compounds at 10 μM, 125 μM 5-FUrd
T3 construct: expressed in transfected cells; host or cells: fui1Δ yeast (Saccharomyces cerevisiae), co-expressing GFP
In short: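 fui1Δ yeast expressing PfENT1 and GFP were grown with 125 μM 5-fluorouridine, so growth reflects blocked 5-FUrd uptake. Compounds were screened at 10 μM. Growth scored by OD620 turbidity and GFP fluorescence, and hits had to be positive on both.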

[3] = 3D7, high purine media (hypoxanthine 367 μM), read-out: IC50 3D7 parasite viability-high purine media
[4] = 3D7, low purine media (hypoxanthine 10 μM), read-out: IC50 3D7 parasite viability-low purine media

T3 sequence (Q8IDM6 whole entry): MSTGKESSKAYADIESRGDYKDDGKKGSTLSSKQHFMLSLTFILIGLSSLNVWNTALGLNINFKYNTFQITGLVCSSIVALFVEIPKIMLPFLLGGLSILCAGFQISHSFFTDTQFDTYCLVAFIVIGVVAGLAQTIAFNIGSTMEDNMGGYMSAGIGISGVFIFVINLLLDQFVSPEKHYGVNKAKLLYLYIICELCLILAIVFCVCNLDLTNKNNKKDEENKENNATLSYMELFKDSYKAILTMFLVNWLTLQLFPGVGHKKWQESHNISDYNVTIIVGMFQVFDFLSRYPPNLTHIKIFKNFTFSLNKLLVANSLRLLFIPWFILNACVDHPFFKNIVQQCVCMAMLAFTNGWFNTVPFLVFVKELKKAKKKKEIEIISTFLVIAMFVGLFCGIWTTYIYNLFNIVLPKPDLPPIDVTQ
T2 sequence (Q8IDM6 whole entry): as above
T1 sequence (Q8IDM6 whole entry): as above

Structure (SMILES)	IC50 [1, 3] [µM]	IC50 [1, 4] [µM]	IC50 (PfENT1-HA-CO) [µM]	IC50 (PfENT1-CO) [µM]	IC50 (Dd2 parasite) [µM]	IC50 [2] [µM]	Avg Normalized % maximal activity (PfENT1) [%]
COc1cc(COc2ccc3c(C)cc(=O)oc3c2)cc(OC)c1OC [HTS Rank #3, 4-methyl-7-[(3,4,5-trimethoxybenzyl)oxy]-2H-chromen-2-one]	41 ± 4.3	19.2 ± 4.3	2.3 ± 0.9	0.0024 ± 0.0015	36.2 ± 6	0.0064 ± 0.003	84.71
O=C(Nc1ccc2nc(NC(=O)c3ccco3)sc2c1)c1ccco1 [compound 1]	37.7 ± 2	31.1 ± 4.7	0.8	0.003 ± 0.0013	25.8 ± 1.3	0.0054 ± 0.0029	97.22
O=C(Nc1ccc(-c2nc3ncccc3o2)cc1)c1ccccc1Br [compound 2, 2-bromo-N-(4-[1,3]oxazolo [4,5-b]pyridin-2-ylphenyl)benzamide]	53.4 ± 11.1	31.2 ± 7.7	6 ± 1.7	0.0101 ± 0.0084	52.4 ± 5.7	0.028 ± 0.0123	91.94
O=C(Nc1ccc(-c2nnc(-c3ccco3)o2)cc1)c1ccco1 [compound 4, N-{4-[5-(2-furyl)-1,3,4-oxadiazol-2-yl]phenyl}-2-furamide]	14.7 ± 1.9	15 ± 1.5	5.7 ± 0.8	0.0137 ± 0.0075	15.3 ± 2.7	0.0458 ± 0.0241	74.03
Cn1cc(C(=O)C(=O)Nc2ccc(C(=O)N3CCCC3)cc2)c2ccccc21 [compound 5, 2-(1-methyl-1H-indol-3-yl)-2-oxo-N-[4-(pyrrolidin-1-ylcarbonyl)phenyl]acetamide]	33.1 ± 0.5	35.5 ± 0.7	6.5 ± 1.5	0.0227 ± 0.0072	28.9 ± 2.6	0.0386 ± 0.0201	64.07
O=C(Nc1cccc(-c2nc3ncccc3o2)c1)c1cccc(F)c1 [compound 6, 3-fluoro-N-(3-[1,3]oxazolo [4,5-b]pyridin-2-ylphenyl)benzamide]	33.7 ± 5	34.8 ± 2.4	5.7 ± 1.3	0.0096 ± 0.0074	38.8 ± 4.9	0.0198 ± 0.0129	59.06
COc1ccccc1C(=O)Nc1cccc(-c2nc3ncccc3o2)c1 [compound 7, 2-methoxy-N-(3-[1,3]oxazolo [4,5-b]pyridin-2-ylphenyl)benzamide]	44.8 ± 3.8	43.6 ± 4.4	6.4 ± 0.9	0.0109 ± 0.0068	31 ± 0.6	0.0248 ± 0.0174	55.05
Cc1ccccc1/C=C/c1nc2ccccc2c(=O)[nH]1 [compound 13, 2-[2-(2-methylphenyl)vinyl]-4(3H)-quinazolinone]	6.7 ± 0.5	6.9 ± 0.4	4.7 ± 2.9	–	2.6 ± 0.2	0.0216 ± 0.0142	24.69
O=C(Nc1ccc(Cl)c(-c2nc3ncccc3o2)c1)c1cccs1 [compound 19, N-(4-chloro-3-[1,3]oxazolo [4,5-b]pyridin-2-ylphenyl)-2-thiophenecarboxamide]	42.9 ± 2.8	43.2 ± 2.9	5.4 ± 0.8	0.0384 ± 0.0165	37.4 ± 1.6	0.0179 ± 0.0127	21.24
Cc1ccc(NC(=O)Nc2ccc(F)cc2)nc1 [compound 169, N-(4-fluorophenyl)-N′-(5-methyl-2-pyridinyl)urea]	–	–	–	–	–	–	1.85
O=C(c1cc2nc3c(c(C(F)(F)F)n2n1)CCc1ccccc1-3)N1CCCC1 [compound 170, 10-(1-pyrrolidinyl-carbonyl)-7-(trifluoromethyl)-5,6-dihydrobenzo[h] pyrazolo[5,1-b] quinazoline]	–	–	–	–	–	–	1.74
COc1ccc(OC)c(NC(=O)CC2Nc3cc(C)c(C)cc3NC2=O)c1 (centres unmarked) [compound 171, N-(2,5-dimethoxyphenyl)-2-(6,7-dimethyl-3-oxo-1,2,3,4-tetrahydro-2-quinoxalinyl)acetamide]	–	–	–	–	–	–	1.60

— patent US9695193B2, “Inhibitors of Plasmodium falciparum equilibrative nucleoside transporter type I as anti-parasitic compounds” (The Trustees of Columbia University in the City of New York, priority 2013, dated 2017)
